From patent publication US8633245B2, “PAI-1 inhibitor” (Institute of Medicinal Molecular Design, Inc., priority 2008, dated 2014)
Like-named read-outs stand apart in the source and are kept apart here.

Target: T1, recombinant human PAI-1 (Homo sapiens, UniProt P05121)
T1 construct: purchased Molecular Innovations, Inc
Experiment: Test Example 2: human PAI-1 inhibitory activity (tPA fluorogenic substrate, pH 7.4 HEPES buffer)
Type: biochemical
Settings: for inhibition at 1 µM / inhibition at 3 µM: read-out: Inhibition Rate of PAI-1 Activity (%)
Procedure: 0.1 M HEPES, 0.1 M NaCl. 1 mM EDTA. 0.1% Polyethylene glycol 8,000 (Hampton Research Corporation),
2 mM Dimethyldecylphoshine oxide [Apo-10] (Fluka Corporation)

[1] = human PAI-1, compound concentration 0.1 μM
[2] = human PAI-1, compound concentration 0.3 μM
[3] = human PAI-1, compound concentration 1 μM
[4] = human PAI-1, compound concentration 3 μM
[5] = human PAI-1, calculated from the inhibition rates
[6] = human PAI-1, compound concentration 10 μM
[7] = human PAI-1, compound concentration 25 μM

T1 sequence (P05121 24-402): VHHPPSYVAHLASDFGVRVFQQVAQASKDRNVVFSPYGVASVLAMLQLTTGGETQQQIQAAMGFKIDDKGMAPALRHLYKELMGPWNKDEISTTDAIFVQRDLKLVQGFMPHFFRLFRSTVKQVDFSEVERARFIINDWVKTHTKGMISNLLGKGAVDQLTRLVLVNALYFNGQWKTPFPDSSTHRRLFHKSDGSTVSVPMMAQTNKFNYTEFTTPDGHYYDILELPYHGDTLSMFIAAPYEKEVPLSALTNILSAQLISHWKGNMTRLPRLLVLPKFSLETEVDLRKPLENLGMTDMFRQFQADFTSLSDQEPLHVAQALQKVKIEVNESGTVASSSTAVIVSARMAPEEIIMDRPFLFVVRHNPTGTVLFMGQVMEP

Structure (SMILES)	Inhibition Rate of PAI-1 Activity (%) [1] [%]	Inhibition Rate of PAI-1 Activity (%) [2] [%]	Inhibition Rate of PAI-1 Activity (%) [3] [%]	Inhibition Rate of PAI-1 Activity (%) [4] [%]	further results
CCCCOc1ccc(-c2ccc(OCC(=O)O)c(Oc3ccc(C(C)(C)C)cc3)c2)cc1 [Compound 468]	1	5	86	97	–
CCCCCCCCCCCCCCCOc1ccc(-c2ccc(OC(F)(F)F)cc2)cc1N(CCCCc1ccccc1)C(=O)C(=O)O [Compound 375]	–	–	–	–	IC50: < 100 nM; inhibition at 1 µM: > 99%
CC(C)(C)c1ccc(Oc2cc(-c3ccc(C(C)(C)C)cc3)ccc2/C=C/C(=O)O)cc1 [Compound 495]	8	64	98	>99	–
O=C(O)C(=O)N(CCCCc1ccccc1)c1cc(-c2ccc(OC(F)(F)F)cc2)ccc1OCCCCCO [Compound 676]	7	4	60	>99	–
O=C(O)C(=O)N(CCCCc1ccccc1)c1cc(-c2ccc(OC(F)(F)F)cc2)ccc1OCCCCc1ccccc1 [Compound 354]	–	–	–	–	IC50 [5]: 560 nM
CC(C)(C)c1ccc(Oc2cc(-c3ccc(OC(F)(F)F)cc3)ccc2NCC(=O)O)cc1 [Compound 442]	1	4	83	>99	–
CC(C)(C)c1ccc(-c2ccc(CN(C(=O)C(=O)O)c3ccc(OC(F)(F)F)cc3)cc2)cc1 [Compound 615]	–	–	43	98	Inhibition Rate of PAI-1 Activity (%) [6]: >99%; Inhibition Rate of PAI-1 Activity (%) [7]: 95%
CC(C)c1ccc(Oc2cc(-c3ccc(OC(F)(F)F)cc3)ccc2OCC(=O)O)cc1 [Compound 333]	–	–	–	–	IC50 [5]: 1720 nM
CC(C)(C)c1ccc(-c2ccc(OCC(=O)O)c(Oc3cccc(C(C)(C)C)c3)c2)cc1 [Compound 465]	10	17	87	98	–
CCCCCCCCCOc1cc(-c2ccc(OC(F)(F)F)cc2)ccc1N(CCCCc1ccccc1)C(=O)C(=O)O [Compound 380]	–	–	–	–	IC50: < 100 nM; inhibition at 3 µM: > 99%
CCCCCOc1ccc(Oc2ccc(OC(F)(F)F)cc2)cc1N(CCCCc1ccccc1)C(=O)C(=O)O [Compound 363]	–	–	–	–	IC50: 830 nM; inhibition at 3 µM: > 99%
CCCCCOc1ccc(-c2ccc(F)cc2)cc1N(CCCCc1ccccc1)C(=O)C(=O)O [Compound 359]	–	–	–	–	IC50: 1640 nM
CCCCCCOc1ccc(-c2ccc(OC(F)(F)F)cc2)cc1N(CCCCc1ccccc1)C(=O)C(=O)O [Compound 652]	19	22	>99	>99	–
CCCCCCCCCOc1ccc(-c2ccc(OC(F)(F)F)cc2)cc1N(CCCCc1ccccc1)C(=O)C(=O)O [Compound 364]	–	–	–	–	IC50: 110 nM
O=C(O)C(=O)N(Cc1ccc(-c2ccc(OC(F)(F)F)cc2)cc1)c1ccccc1-c1ccccc1 [Compound 632]	0	9	31	97	–
CC(C)(C)c1ccc(Oc2cc(-c3cccc(OC(F)(F)F)c3)ccc2OCC(=O)O)cc1 [Compound 331]	–	–	–	–	IC50 [5]: 790 nM
CC(C)(C)c1cccc(Oc2ccc(-c3ccc(OC(F)(F)F)cc3)cc2/C=C/C(=O)O)c1 [Compound 437]	0	12	67	98	–
CCCCC(Oc1ccc(-c2ccc(OC(F)(F)F)cc2)cc1Oc1ccc(C(C)(C)C)cc1)C(=O)O (stereo not shown) [Compound 305]	–	–	–	–	IC50 [5]: 940 nM
CCCCC(Oc1ccc(-c2cccc(C)c2)cc1Oc1ccc(C(C)(C)C)cc1)C(=O)O (stereo not shown) [Compound 321]	–	–	–	–	IC50 [5]: 600 nM
CCCCOc1cccc(Oc2cc(-c3ccc(OC(F)(F)F)cc3)ccc2CCC(=O)O)c1 [Compound 472]	15	14	71	>99	–
O=C(O)CCc1cc(-c2ccc(OC(F)(F)F)cc2)ccc1OCCCCCOc1ccc(-c2ccc(OC(F)(F)F)cc2)cc1CCC(=O)O [Compound 544]	0	3	56	92	–
CCCCC(Oc1ccc(-c2cccc(C(F)(F)F)c2)cc1Oc1ccc(C(C)(C)C)cc1)C(=O)O (stereo not shown) [Compound 320]	–	–	–	–	IC50 [5]: 740 nM
Cc1cc(C)cc(Oc2cc(-c3ccc(C(C)(C)C)cc3)ccc2/C=C/C(=O)O)c1 [Compound 494]	9	24	87	92	–
CCCCCCCCCOc1cc(N(CCCCc2ccccc2)C(=O)C(=O)O)ccc1-c1ccc(OC(F)(F)F)cc1 [Compound 389]	–	–	–	–	IC50: < 100 nM; inhibition at 1 µM: > 99%; inhibition at 3 µM: > 99%
CCCCCCC(Oc1cc(-c2ccc(OC(F)(F)F)cc2)ccc1Oc1ccc(C(F)(F)F)cc1)C(=O)O (stereo not shown) [Compound 327]	–	–	–	–	IC50 [5]: 420 nM
CCCCCOc1cc(-c2ccc(OC(F)(F)F)cc2)cc(OCCCCC)c1OCC(=O)O [Compound 424]	0	4	38	>99	–
CCCCCOc1ccc(-c2ccc(OC(F)(F)F)cc2)cc1CN(CC(=O)O)c1ccc(C(C)(C)C)cc1 [Compound 647]	27	43	95	98	–

Second part, led by results:

Inhibition Rate of PAI-1 Activity (%) [1] [%]	Inhibition Rate of PAI-1 Activity (%) [2] [%]	Inhibition Rate of PAI-1 Activity (%) [3] [%]	Inhibition Rate of PAI-1 Activity (%) [4] [%]	Structure (SMILES)	further results
26	12	23	92	O=C(O)C(=O)N(CCCCc1ccccc1)c1ccc(-c2ccc3ccccc3c2)cc1 [Compound 671]	–
0	8	76	>99	CC(C)(C)c1ccc(Oc2cc(-c3cc(Cl)ccc3Cl)ccc2/C=C/C(=O)O)cc1 [Compound 483]	–
1	19	>99	>99	CC(C)c1ccc(-c2ccc(CCC(=O)O)c(Oc3ccc(C(C)(C)C)cc3)c2)cc1 [Compound 519]	–
33	71	98	98	CCC(CC)Oc1ccc(-c2ccc(CCC(=O)O)c(Oc3ccc(C(C)(C)C)cc3)c2)cc1 [Compound 522]	–
13	11	50	>99	CC(C)(C)c1cccc(Oc2ccc(-c3ccc(OC(F)(F)F)cc3)cc2CCC(=O)O)c1 [Compound 438]	–
–	–	26	54	CN(C(=O)c1ccc(OC(F)(F)F)cc1)c1ccc(OCc2ccc(C(C)(C)C)cc2)c(CCC(=O)O)c1 [Compound 416]	Inhibition Rate of PAI-1 Activity (%) [6]: >99%; Inhibition Rate of PAI-1 Activity (%) [7]: >99%
28	34	>99	>99	CCCCCCCCCCN(C(=O)C(=O)O)c1ccc(-c2ccc(OC(F)(F)F)cc2)cc1 [Compound 669]	–
43	95	>99	>99	CCCCCCCCOc1ccc(-c2ccc(OC(F)(F)F)cc2)cc1N(CCCCc1ccccc1)C(=O)C(=O)O [Compound 653]	–
17	37	>99	92	O=C(O)C(=O)N(CCCCc1ccccc1)c1cc(-c2ccc(OC(F)(F)F)cc2)ccc1OC1C2CC3CC(C2)CC1C3 (stereo not shown) [Compound 634]	–
0	15	>99	>99	O=C(O)C(=O)N(CCCCc1ccccc1)c1ccc(N2CCCC2)c(-c2ccc(OC(F)(F)F)cc2)c1 [Compound 673]	–
18	9	48	98	O=C(O)CCc1ccc(-c2ccc(OC(F)(F)F)cc2)cc1OCCCSc1ccccc1 [Compound 508]	–
0	1	73	94	O=C(O)/C=C/c1cc(-c2ccc(OC(F)(F)F)cc2)ccc1OCCCCCOc1ccc(-c2ccc(OC(F)(F)F)cc2)cc1/C=C/C(=O)O [Compound 543]	–
7	21	60	>99	O=C(O)/C=C/c1ccc(-c2ccc(OC(F)(F)F)cc2)cc1Oc1ccc(OC(F)(F)F)cc1 [Compound 477]	–
–	–	7	25	CC(C)(C)c1ccc(N(Cc2ccc(-c3ccccc3)cc2)C(=O)C(=O)O)cc1 [Compound 612]	Inhibition Rate of PAI-1 Activity (%) [6]: 84%; Inhibition Rate of PAI-1 Activity (%) [7]: >99%
